Tests used:
Hepatotoxicity [1] = tested on: Hepatotoxicity;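 as to HepSE Combined Scores: combined hepatic side effect score as listed in the training data of the Drug Induced Liver Injury Prediction System (DILIps)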; as to HepSE hepatic failure: call rule not given here;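 as to HepSE hepatitis: Hepatitis-related hepatic side effect score taken from the training data of DILIps, a prediction system for drug-induced liver injury; call rule not given here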;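 as to HepSE jaundice: Jaundice-related hepatic side-effect score drawn from the training data of the DILIps (drug-induced liver injury prediction system); call rule not given here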; as to HepSE liver disease: call rule not given here;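 as to HepSE liver fatty: hepatic side effect score for fatty liver, taken from the DILIps training set for predicting drug-induced liver injury; call rule not given here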;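 as to HepSE liver function tests abnormal: hepatic side effect score taken from the DILIps (drug-induced liver injury prediction system) training data, here covering abnormal liver function test findings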
Hepatotoxicity [2] = tested on: Hepatotoxicity; remark: listed apart in the source;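 as to HepSE Combined Scores: combined hepatic side effect score as listed in the training data of the Drug Induced Liver Injury Prediction System (DILIps)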; as to HepSE hepatic failure: call rule not given here;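 as to HepSE hepatitis: Hepatitis-related hepatic side effect score taken from the training data of DILIps, a prediction system for drug-induced liver injury; call rule not given here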;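 as to HepSE jaundice: Jaundice-related hepatic side-effect score drawn from the training data of the DILIps (drug-induced liver injury prediction system); call rule not given here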; as to HepSE liver disease: call rule not given here;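 as to HepSE liver fatty: hepatic side effect score for fatty liver, taken from the DILIps training set for predicting drug-induced liver injury; call rule not given here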;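 as to HepSE liver function tests abnormal: hepatic side effect score taken from the DILIps (drug-induced liver injury prediction system) training data, here covering abnormal liver function test findings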
Hepatotoxicity [3] = tested on: Hepatotoxicity; remark: listed apart in the source;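 as to HepSE Combined Scores: combined hepatic side effect score as listed in the training data of the Drug Induced Liver Injury Prediction System (DILIps)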; as to HepSE hepatic failure: call rule not given here;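 as to HepSE hepatitis: Hepatitis-related hepatic side effect score taken from the training data of DILIps, a prediction system for drug-induced liver injury; call rule not given here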;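 as to HepSE jaundice: Jaundice-related hepatic side-effect score drawn from the training data of the DILIps (drug-induced liver injury prediction system); call rule not given here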; as to HepSE liver disease: call rule not given here;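 as to HepSE liver fatty: hepatic side effect score for fatty liver, taken from the DILIps training set for predicting drug-induced liver injury; call rule not given here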;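 as to HepSE liver function tests abnormal: hepatic side effect score taken from the DILIps (drug-induced liver injury prediction system) training data, here covering abnormal liver function test findings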
Hepatotoxicity [4] = tested on: Hepatotoxicity; remark: listed apart in the source;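 as to HepSE Combined Scores: combined hepatic side effect score as listed in the training data of the Drug Induced Liver Injury Prediction System (DILIps)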; as to HepSE hepatic failure: call rule not given here;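 as to HepSE hepatitis: Hepatitis-related hepatic side effect score taken from the training data of DILIps, a prediction system for drug-induced liver injury; call rule not given here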;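 as to HepSE jaundice: Jaundice-related hepatic side-effect score drawn from the training data of the DILIps (drug-induced liver injury prediction system); call rule not given here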; as to HepSE liver disease: call rule not given here;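 as to HepSE liver function tests abnormal: hepatic side effect score taken from the DILIps (drug-induced liver injury prediction system) training data, here covering abnormal liver function test findings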
Hepatotoxicity [5] = tested on: Hepatotoxicity; remark: listed apart in the source; as to HepSE hepatic failure: call rule not given here; as to HepSE liver disease: call rule not given here
Hepatotoxicity [6] = tested on: Hepatotoxicity; remark: listed apart in the source; as to HepSE hepatic failure: call rule not given here; as to HepSE liver disease: call rule not given here
Hepatotoxicity [7] = tested on: Hepatotoxicity; remark: listed apart in the source
Hepatotoxicity [8] = tested on: Hepatotoxicity; remark: listed apart in the source
Hepatotoxicity [9] = tested on: Hepatotoxicity; remark: listed apart in the source
Hepatotoxicity [10] = tested on: Hepatotoxicity; remark: listed apart in the source
Hepatotoxicity [11] = tested on: Hepatotoxicity; remark: listed apart in the source
Hepatotoxicity [12] = tested on: Hepatotoxicity; remark: listed apart in the source
Hepatotoxicity [13] = tested on: Hepatotoxicity; remark: listed apart in the source
Hepatotoxicity [14] = tested on: Hepatotoxicity; remark: listed apart in the source

Row | Compound | HepSE_Combined Scores (Hepatotoxicity [1]) | HepSE_jaundice (Hepatotoxicity [2]) | HepSE_hepatic failure (Hepatotoxicity [3]) | HepSE_hepatitis (Hepatotoxicity [4]) | HepSE_liver function tests abnormal (Hepatotoxicity [5]) | HepSE_liver disease (Hepatotoxicity [6]) | HepSE_liver fatty (Hepatotoxicity [7]) | HepSE_cirrhosis (Hepatotoxicity [8]) | HepSE_hepatomegaly (Hepatotoxicity [9]) | HepSE_cholecystitis (Hepatotoxicity [10]) | HepSE_cholelithiasis (Hepatotoxicity [11]) | HepSE_bilirubinemia (Hepatotoxicity [12]) | HepSE_elevated liver function tests (Hepatotoxicity [13]) | HepSE_hepatic necrosis (Hepatotoxicity [14]) | also measured
1 | CCN(CC)C(C)C(=O)c1ccccc1 (configuration not stated) [DIETHYLPROPION] | 0 | 0 | 0 | 0 | 0 | 0 | 0 | 0 | 0 | 0 | 0 | 0 | 0 | 0 | 
2 | COc1cc(Cc2cnc(N)nc2N)cc(OC)c1OC [TRIMETHOPRIM] |  |  |  |  |  |  |  |  |  |  |  |  |  |  | HepSE_Combined Scores (Hepatotoxicity [1]; Liver): 1; HepSE_jaundice (Hepatotoxicity [2]; Liver): 1; HepSE_hepatic failure (Hepatotoxicity [3]; Liver): 0; HepSE_hepatitis (Hepatotoxicity [4]; Liver): 0; HepSE_liver function tests abnormal (Hepatotoxicity [5]; Liver): 0; HepSE_liver disease (Hepatotoxicity [6]; Liver): 0; HepSE_liver fatty (Hepatotoxicity [7]; Liver): 0; HepSE_cirrhosis (Hepatotoxicity [8]; Liver): 0; HepSE_hepatomegaly (Hepatotoxicity [9]; Liver): 0; HepSE_cholecystitis (Hepatotoxicity [10]; Liver): 0; HepSE_cholelithiasis (Hepatotoxicity [11]; Liver): 0; HepSE_bilirubinemia (Hepatotoxicity [12]; Liver): 0; HepSE_elevated liver function tests (Hepatotoxicity [13]; Liver): 0; HepSE_hepatic necrosis (Hepatotoxicity [14]; Liver): 0
3 | CCCCC(=O)N(Cc1ccc(-c2ccccc2-c2nnn[nH]2)cc1)[C@H](C(=O)O)C(C)C | 1 | 0 | 0 | 1 | 0 | 0 | 0 | 0 | 0 | 0 | 0 | 0 | 0 | 0 | 
4 | COCc1c(C(C)C)nc(C(C)C)c(/C=C/[C@@H](O)C[C@@H](O)CC(=O)O)c1-c1ccc(F)cc1 [CERIVASTATIN] | 4 | 1 | 0 | 1 | 0 | 0 | 0 | 1 | 0 | 0 | 0 | 0 | 0 | 1 | 
5 | COCCc1ccc(OCC(O)CNC(C)C)cc1 (configuration not stated) [METOPROLOL] | 2 | 1 | 0 | 1 | 0 | 0 | 0 | 0 | 0 | 0 | 0 | 0 | 0 | 0 | 
6 | Cl.N [AMMONIUM CHLORIDE] | 0 | 0 | 0 | 0 | 0 | 0 | 0 | 0 | 0 | 0 | 0 | 0 | 0 | 0 | 
7 | NS(=O)(=O)c1cc(C2(O)NC(=O)c3ccccc32)ccc1Cl (configuration not stated) [CHLORTHALIDONE] | 1 | 1 | 0 | 0 | 0 | 0 | 0 | 0 | 0 | 0 | 0 | 0 | 0 | 0 | 
8 | CC(C)(C)NCC(O)c1ccc(O)c(CO)n1 (configuration not stated) [PIRBUTEROL] | 0 | 0 | 0 | 0 | 0 | 0 | 0 | 0 | 0 | 0 | 0 | 0 | 0 | 0 | 
9 | CCn1cc(C(=O)O)c(=O)c2ccc(C)nc21 [NALIDIXIC ACID] | 0 | 0 | 0 | 0 | 0 | 0 | 0 | 0 | 0 | 0 | 0 | 0 | 0 | 0 | 
10 | CC[C@@H]1C(=O)OC[C@@H]1Cc1cncn1C [PILOCARPINE] | 4 | 0 | 0 | 1 | 1 | 0 | 0 | 0 | 0 | 0 | 1 | 1 | 0 | 0 | 
11 | GADODIAMIDE | 0 | 0 | 0 | 0 | 0 | 0 | 0 | 0 | 0 | 0 | 0 | 0 | 0 | 0 | 
12 | Cc1nnc2n1-c1ccc(Cl)cc1C(c1ccccc1)=NC2 [ALPRAZOLAM] | 3 | 1 | 1 | 1 | 0 | 0 | 0 | 0 | 0 | 0 | 0 | 0 | 0 | 0 | 
13 | FC(F)(F)C(Cl)Br (configuration not stated) [HALOTHANE] | 1 | 0 | 0 | 0 | 0 | 0 | 0 | 0 | 0 | 0 | 0 | 0 | 0 | 1 | 
14 | CN(Cc1cnc2nc(N)nc(N)c2n1)c1ccc(C(=O)N[C@@H](CCC(=O)O)C(=O)O)cc1 [METHOTREXATE] | 5 | 0 | 1 | 1 | 0 | 0 | 0 | 1 | 0 | 0 | 0 | 1 | 1 | 0 | 
15 | C[C@@H]1O[C@@H]1P(=O)(O)O [FOSFOMYCIN] | 2 | 1 | 0 | 0 | 0 | 0 | 0 | 0 | 0 | 0 | 0 | 0 | 0 | 1 | 
16 | COCC1=C(C(=O)O)N2C(=O)[C@@H](NC(=O)/C(=N\OC)c3csc(N)n3)[C@H]2SC1 [CEFPODOXIME] | 0 | 0 | 0 | 0 | 0 | 0 | 0 | 0 | 0 | 0 | 0 | 0 | 0 | 0 | 
17 | Cc1nc2ccc(CN(C)c3ccc(C(=O)N[C@@H](CCC(=O)O)C(=O)O)s3)cc2c(=O)[nH]1 [RALTITREXED] | 1 | 0 | 1 | 0 | 0 | 0 | 0 | 0 | 0 | 0 | 0 | 0 | 0 | 0 | 
18 | CN1CCC(=C2c3ccccc3CC(=O)c3sccc32)CC1 [KETOTIFEN] | 1 | 0 | 0 | 1 | 0 | 0 | 0 | 0 | 0 | 0 | 0 | 0 | 0 | 0 | 

Reference: ChEMBL document CHEMBL1909294, “Translating clinical findings into knowledge in drug safety evaluation--drug induced liver injury prediction system (DILIps)” (PLoS Comput Biol, 2011)
